Experimental data: patent publication US20210100245A1, “SYNERGISTIC FORMULATIONS FOR CONTROL AND REPELLENCY OF BITING ARTHROPODS” (BEDOUKIAN RESEARCH, INC., priority 2019, published 2021)

System: Adult female Aedes aegypti
Assay: Membrane feeder repellency test: mosquitoes probing treated collagen membranes over blood-filled wells
Assay type: in vivo
Details: for Test results (quantity not named; percentage from mosquito probing counts): 6.25 μl on collagen membrane, probes counted every 2 min for 20 min; for Test results, percentage relative to 0.3 wt % DEET in the same test: total repellent 0.30%, relative to 0.3 wt % DEET (=100%)
Description: Adult female Aedes aegypti were obtained from the i2LResearch USA, Inc. colony. Two hundred fifty (250) mosquitoes were used per replicate (seven replicates). Mosquitoes were at least 6 days old and had been deprived of sucrose solution for at least 18 hours prior to testing.
An exposure container was used to present the mosquitoes with a choice of blood-filled wells that were covered with collagen membranes (3 cm in diameter). The collagen membranes were treated by pipetting 6.25 μI of the test treatment onto the appropriate membrane and spreading it evenly with the tip of the pipette.
Exposure container. A 30.5 cm×30.5 cm×30.5 cm container (rigid plastic frame and a sleeved entry on one side and a sliding trap door on the bottom). The container was supported by four (4 cm high) legs.
Membrane feeder. Five wells (3 cm in diameter×8 mm in depth) in line on a hollow plastic block (6 cm wide×22 cm long×3 cm deep). The plastic block fit into the bottom of the exposure container. Hoses mounted on either end of the membrane feeder carried warm water that was pumped from a water bath. The sliding plastic trap door in the bottom of the exposure container covered and uncovered the wells in the membrane feeder, allowing mosquitoes to access the blood-filled wells that were covered with treated collagen membranes.
Study set-up. The membrane feeder was connected to a heated water bath, and warm water passed through the feeder via a circulating pump so that the wells were warmed to 96-100° F. Seventy-two (72) mg of ATP (disodium salt) were added to 26 ml of bovine blood. Sodium citrate was also added to the blood during collection to prevent clotting. The blood was poured into the wells until it completely filled each well (meniscus slightly above the level of the well).
Circular pieces (3 cm in diameter) of collagen membrane were placed over each of the wells. Care was taken to eliminate all air bubbles from between the membrane and the surface of the blood. Once wells were prepared, the blood was allowed to warm until the membrane temperature reached […]. Temperature was confirmed using a surface thermometer.
Treatment and exposure to mosquitoes. Once the collagen membranes were placed over the blood-filled wells, they were treated as described above. The membranes were allowed to dry for five minutes. Then the exposure container was placed on the membrane feeder. The trap door in the floor of the container was slid back, exposing the mosquitoes to the membranes. The number of mosquitoes probing the membrane covering each well was recorded every two minutes for twenty minutes. If a minimum of 20 total control probes were not achieved in a replicate, the replicate was repeated.
The above procedures were repeated until seven acceptable replicates were completed. […]

Row | Compound | Test results (quantity not named; percentage from mosquito probing counts) (concentration 0.15%) | Test results (quantity not named; percentage from mosquito probing counts) (concentration 0.30%) | Test results, percentage relative to 0.3 wt % DEET in the same test
1 | CC1CCC(C(C)C)C(OCC(O)CO)C1 (stereo not shown) [Coolact 10, menthoxypropane-1,2-diol] | 45.4% | 41.5% | 
2 | CCN(CC)C(=O)c1cccc(C)c1 [DEET, N,N-diethyl-m-toluamide, reference compound] |  |  | 100.0%
3 | CCNC(=O)C1CC(C)CCC1C(C)C (stereo not shown) [WS3, N-ethyl-p-menthane-3-carboxamide] |  |  | 130.0%
